Measurements published in patent publication US20070191406A1, “Heterocyclic antiviral compounds” (Roche Palo Alto LLC, priority 2006, published 2007).
Counter-ions that a name gives are not always drawn.

What follows are compounds tested against T1, CCR5 (Homo sapiens, UniProt P51681) (assay: CCR5-Mediated CCF Assay). Settings: Hela-R5 cells (gp160 from R5-tropic virus, HIV-1 Tat) co-cultured 24 hrs with CEM-NKr-CCR5-Luc cells; luciferase readout.
T1 construct: host or cells: CEM-NKr-CCR5-Luc
T1 sequence (P51681 whole entry): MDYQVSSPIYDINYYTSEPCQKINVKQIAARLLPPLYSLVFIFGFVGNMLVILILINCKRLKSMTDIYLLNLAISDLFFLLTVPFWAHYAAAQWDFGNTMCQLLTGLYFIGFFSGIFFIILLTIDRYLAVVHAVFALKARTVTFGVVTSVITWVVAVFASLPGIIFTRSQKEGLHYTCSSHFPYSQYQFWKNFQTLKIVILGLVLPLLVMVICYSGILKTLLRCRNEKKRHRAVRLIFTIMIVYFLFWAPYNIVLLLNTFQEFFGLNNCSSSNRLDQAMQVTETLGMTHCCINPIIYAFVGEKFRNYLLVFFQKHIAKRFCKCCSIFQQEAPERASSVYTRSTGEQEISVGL
Assay type: cell-based
Protocol: CCF assay was performed as described before (C. Ji, J. Zhang, N. Cammack and S. Sankuratri, J. Biomol. Screen. 2006 11(6):652-663). Hela-R5 cells (express gp160 from R5-tropic virus and HIV-1 Tat) were plated in 384 well white culture plates (BD Bioscience, Palo Alto, Calif.) at 7.5×10^3 cells per well in phenol red-free Dulbecco's Modified Eagle Medium (DMEM) supplemented with 10% FBS, 1× Pen-Strep, 300 μg/mL G418, 100 μg/mL hygromycin, and 1 μg/mL Doxycycline (Dox) (BD Bioscience, Palo Alto, Calif.), using Multimek (Beckman, Fullerton, Calif.) and incubated at 37° C. overnight to induce the expression of gp160. Ten μL diluted compounds in medium containing 5% DMSO were added to the cells, followed by the addition of CEM-NKr-CCR5-Luc (obtained from NIH AIDS Research & Reference Reagents Program) that expresses CD4 and CCR5 and carries a HIV-2 long terminal repeat (LTR)-driven luciferase reporter gene at 1.5×10^4 cells/15 μL/well and incubated for 24 hrs. At the end of co-culture, 15 μL of Steady-Glo luciferase substrate was added into each well, and the cultures were sealed and gently shaken for 45 min. The luciferase activity were measured for 10 sec per well as luminescence by using 16-channel TopCount NXT (PerkinElmer, Shelton, Conn.) with 10 min dark adaptation and the readout is count per second (CPS). For the drug interaction experiments, small molecule compounds or antibodies were serially diluted in serum-free and phenol red-free RPMI containing 5% DMSO (CalBiochem, La Jolla, Calif.) and 1× Pen-Strep. Five μL each of the two diluted compound or mAb to be tested for drug-drug interactions were added to the Hela-R5 cells right before the addition of target cells.
Cc1cccc(C)c1C(=O)N1CC2CN(CC[C@H](NC(=O)C3CCCC3C(=O)O)c3ccccc3)CC2C1 (stereo partly drawn) [I-33, 2-{(S)-3-[5-(2,6-Dimethyl-benzoyl)-hexahydro-pyrrolo[3,4-c]pyrrol-2-yl]-1-phenyl-propylcarbamoyl}-cyclopentanecarboxylic acid] gave an IC50 of 1.7 nM. Cc1ccnc(C)c1C(=O)N1CC2CN(CC[C@H](NC(=O)C3CCC(=O)C3)c3cccc(F)c3)CC2C1 (stereo partly drawn) [I-23, 3-Oxo-cyclopentanecarboxylic acid [(S)-3-[5-(2,4-dimethyl-pyridine-3-carbonyl)-hexahydro-pyrrolo[3,4-c]pyrrol-2-yl]-1-(3-fluoro-phenyl)-propyl]-amide] showed an IC50 of 7.4 nM. Cc1ncnc(C)c1C(=O)N1CC2CN(CC[C@H](NC(=O)C3CCCC(=O)C3)c3cccc(F)c3)CC2C1 (stereo partly drawn) [I-24, 3-Oxo-cyclohexanecarboxylic acid [(S)-3-[5-(4,6-dimethyl-pyrimidine-5-carbonyl)-hexahydro-pyrrolo[3,4-c]pyrrol-2-yl]-1-(3-fluoro-phenyl)-propyl]-amide] was tested, and the IC50 was 6.5 nM. Cc1ccc(N(CCCN2CC3CN(C(=O)c4c(C)cccc4C)CC3C2)C(=O)[C@@H]2CC[C@H](C(=O)O)C2)cc1Cl (stereo partly drawn) [I-4, (1S,3R)-3-((3-Chloro-4-methyl-phenyl)-{3-[5-(2,6-dimethyl-benzoyl)-hexahydro-pyrrolo[3,4-c]pyrrol-2-yl]-propyl}-carbamoyl)-cyclopentanecarboxylic acid, trifluoro-acetate salt] showed an IC50 of 9.8 nM. Compound COC(=O)[C@H]1CC[C@@H](C(=O)N(CCCN2C[C@@H]3CN(C(=O)c4c(C)ncnc4C)C[C@@H]3C2)c2ccc(C)c(Cl)c2)CC1 [I-31] has an IC50 of 3.5 nM.
